Measured values reported in patent US12433670B2, “Systems and methods for treating cancer and/or augmenting organ function” (Autonomix Medical, Inc., priority 2013, dated 2025).

What was measured:
[1] = system: Mia PaCa2 human pancreatic cancer cells
Experimental: The following non-limiting example is directed at the treatment of neurogenic pathways for tumor growth and metastasis of pancreatic ductal adenocarcinoma (PDAC). A control experiment was performed with 10 athymic nude mice. The 10 mice were surgically prepared under anesthesia, and the surgical site was cleaned with 75% ethanol solution. A dorsal incision was used to access the spleen, pancreas and associated arterial supply. Mia PaCa2 human pancreatic cancer cells were seeded into the pancreas of each mouse. In 5 of the mice, the celiac ganglion and surrounding nerves were ablated with ethanol. The surgical procedures were completed and the mice were returned to Plexiglass boxes for observation.
The animals were monitored for detectable sickness related behavior and tumor growth was monitored via in vivo bioluminescent imaging techniques (IVIS® imaging system). Animals were monitored for relative changes in the following criteria: detectable sickness-related behavior, hunching and postural changes, signs of tumor growth in the animals' back (visible lumps), increases in piloerection, changes in skin tone and character, and changes in voluntary movement levels and exploratory behavior.

[2] = system: Pancreatic carcinoma cells (Mia PaCa2)
Experimental: (§1) The following, non-limiting example, is directed to treatment of cancer (e.g., pancreatic cancer), internal pain or neural mediated hyperplasia in organs (e.g., benign prostatic hyperplasia). Pancreatic carcinoma cells (Mia PaCa2) were injected into the head of the pancreas of 10 athymic nude mice (subjects). A bolus of ethanol (50-75 uL) was administered to the celiac ganglion and surrounding nerves of five of the mice (i.e., the EtOH ablation group). The remaining five subjects constitute the untreated control group.
The mice were tracked for 7 weeks post procedure. Tumor growth rates in all subjects were monitored via bioluminescent imaging with an in vivo imaging system, i.e., IVIS Spectrum (Xenogen), twice weekly during the experiment.
(§2) The metastases per group were assessed during necropsy.

[3] = 7 weeks; EtOH group vs control group
Experimental: as §1
The experiment was terminated at 7 weeks.
as §2

[4] = necropsy at 7 weeks, affected/total mice

CCO [EtOH, ethanol]
skin tone and movement versus the control mice ([1]; 2 weeks post-surgery, celiac ganglion and surrounding nerves ablated with ethanol, n=5): improved skin tone and movement
average tumor size relative to the average tumor size in the control group (IVIS luciferase ROI imaging) ([1]; 3 weeks, experimental group vs control group): 55%
median tumor size relative to the control group median tumor size ([2]; 3 weeks): less than 1%
tumor growth rate compared with the control arm (FIG. 11a) ([2]; 3 weeks post procedure, median subject of each group, ethanol 50-75 uL): substantially decreased
difference in bioluminescence between the median responders ([2]; 3 weeks post procedure, treatment arm vs control arm): ~100 ×
mean tumor size relative to the control group ([2]; 3 weeks, 1-sided, alpha=0.05, n=5, p=0.11): half
Occurrence of metastases by group: Liver [2, 4]: 0/5
Occurrence of metastases by group: Local invasion [2, 4]: 2/5
Occurrence of metastases by group: Stomach [2, 4]: 0/5
Occurrence of metastases by group: Spleen ([2]; necropsy at 7 weeks, affected/total mice, nerves from pancreas to spleen not treated): 4/5
incidence of metastases versus the untreated control group ([2]; necropsy at 7 weeks, including non-responder sub-group): considerably lower
tumor mass versus subjects of the control group ([2]; subjects with ablated peri-pancreatic nerves, overall): less tumor mass
overall size difference between subjects in the groups (FIG. 11c) [3]: no overall size difference
